Where a name gives a salt, the structure may show the parent alone.
What was measured:
Type in all cases: physicochemical
[1] = Comparison of polyol affinity for borate ions by direct titrimetry; details: polyol added to 100.0 ml of 5% w/v Borax solution; calculated from pH with Equation 3
Experimental: The following polyols were used in this investigation; maltitol, dulcitol, D-mannitol, D-sorbitol, xylitol, meso-erythritol, 1,2-propanediol, glycerol. Additionally, the affect of propan-2-ol was also investigated. The affinity of each polyol for borate was estimated using direct titrimetry and by analysis of gel characteristics. In the former method, incremental additions (1.0 ml) of a 0.5 M solution of polyol was added to 100.0 ml of 5% w/v Borax solution and the pH recorded. […] 3; 10^(pH-pKa)[H3BO3]0═[B(OH)4^−]f (3) where, [H3BO3]0 is the concentration of boric acid, [B(OH)4^−]f is the concentration of free borate ions and pKa is the pKa of boric acid (derived from the initial pH of the 5% w/v borax solution). […] These assumptions are consistent with work of other researchers^27,28.

[2] = Texture profile analysis (hardness) of PVA-borate hydrogels; details: for Hardness (N): 10% w/w PVA and 2.5% w/w borax hydrogel with 0.1 M polyol, n=4; for effect on hardness compared to the hydrogel containing no polyol: hydrogel loaded with 0.1 Molar polyol
Experimental: Evaluation of the mechanical properties of PVA-borate hydrogels was performed using a TA-XT2 Texture Analyzer (Stable Micro Systems, […], UK) in texture profile analysis (TPA) mode. Formulations were placed in poly(propylene) containers (44 mm diameter×55 mm depth) (Sarstedt©, Wexford, Republic of Ireland) with any air bubbles in the gels removed upon standing at ambient temperature (>6.0 h) prior to investigation. The tubular probe (10.0 mm in diameter and 150.0 mm in length) was compressed twice into each sample to a depth of 15.0 mm at a rate of 10.0 mm s^-1, with a 15.0 s delay between compressions. Four replicate measurements were made in each case at ambient temperature. Hardness and compressibility, which have previously been used to define the mechanical properties of hydrogels were derived from the force-time plots produced by the TPA analysis^30. Those skilled in the art of TPA, will be familiar with production of said force-time plots and derivation of hardness and compressibility data from aforementioned data. Hardness, the force required to achieve a given deformation, was determined by the force maximum of the first positive curve of the force-time plot^30. Compressibility, the work required to deform the product during the first compression of the probe was determined by the area under the first positive curve of the force-time plot^30. Additionally, the effect of the polyols on the concentration of free borate ions within the hydrogel was estimated using changes in the pH of the gel after addition of a defined polyol. Standard hydrogels of 10% w/w PVA and 2.5% borax were produced containing each polyol at a concentration of 0.1 Molar. The pH of each gel was measured upon equilibration, with each measurement performed for four samples (n=4). Similarly, the changes in gel hardness arising from variations in free borate induced by polyol addition were determined using texture profile analysis, as described above. As before, four replicate measurements were made in each case at ambient temperature (n=4).

[3] = pH measurement of PVA-borate hydrogels (spear-tip electrode); details: 10% w/w PVA and 2.5% w/w borax hydrogel, n=4
Experimental: PVA-borate hydrogels (10% w/w PVA and 2.5% w/w borax) were prepared by combining equal volumes of separate stock solutions (20% w/w PVA and 5% w/w borax) prepared in de-ionised water. A homogenous gel was formed upon heating the mixture to 80° C. for approximately two hours, with periodic stirring. Gels were stored for 48 hours at room temperature to allow complete gelation prior to evaluation. Excipients, such as lidocaine HCL and D-mannitol, were added to the sodium tetraborate solution prior to addition to the PVA solution. The pH of gel formulations were recorded using a Sensorex® spear-tip electrode ([…], Sensys Ltd, Stevenage), which is designed to penetrate and measure the pH of semi-solid systems. Measurements of pH in borax solutions (5% w/v), following successive additions of D-mannitol (5.0×10^-3 mole), were recorded using the same electrode apparatus. Additionally, the effect of the polyols on the concentration of free borate ions within the hydrogel was estimated using changes in the pH of the gel after addition of a defined polyol. Standard hydrogels of 10% w/w PVA and 2.5% borax were produced containing each polyol at a concentration of 0.1 Molar. The pH of each gel was measured upon equilibration, with each measurement performed for four samples (n=4). Similarly, the changes in gel hardness arising from variations in free borate induced by polyol addition were determined using texture profile analysis, as described above. As before, four replicate measurements were made in each case at ambient temperature (n=4).

[4] = pHp of lidocaine hydrochloride within PVA-Borate hydrogels, derived experimentally
Experimental: […]. The determination of the pHp in the aqueous environment is determined using the equation (1), whilst the determination of the pHp within the gel environment is derived experimentally. […].

| Molecule | % reduction in free borate/0.0005 moles [1] [%] | Hardness (N) [2] [N] | pH of hydrogel with 0.1 M polyol [3] | effect on hardness compared to the hydrogel containing no polyol [2] | pHp (Gel) ([4]; 1% w/v lidocaine HCl in PVA-Borate hydrogel) | pHp (Gel) ([4]; 2% w/v lidocaine HCl in PVA-Borate hydrogel) | pHp (Gel) ([4]; 3% w/v lidocaine HCl in PVA-Borate hydrogel) | pHp (Gel) ([4]; 4% w/v lidocaine HCl in PVA-Borate hydrogel, hydrochloride) | pHp (Gel) ([4]; 4% w/v lidocaine HCl in PVA-Borate hydrogel, listed as lidocaine hydrochloride monohydrate, hydrochloride) |
| --- | --- | --- | --- | --- | --- | --- | --- | --- | --- |
| OC[C@@H](O)[C@H](O)[C@H](O)[C@@H](O)CO [Dulitol] | 7.46 ± 1.41 | 3.87 ± 0.38 | 7.67 ± 0.015 |  |  |  |  |  |  |
| OCC(O)CO [Glycerol] | 3.36 ± 1.34 |  | 8.17 +/− 0.022 |  |  |  |  |  |  |
| OC[C@@H](O)[C@H](O)[C@@H](O)CO [Xylitol] | 4.97 ± 1.21 | 5.18 ± 0.31 | 7.95 ± 0.038 |  |  |  |  |  |  |
| OC[C@@H](O)[C@@H](O)[C@H](O)[C@H](O)CO [D-mannitol] | 7.47 ± 1.10 | 4.07 ± 0.25 | 7.74 ± 0.023 |  |  |  |  |  |  |
| OC[C@@H](O)[C@@H](O)CO [Meso-erythritol] | 4.97 ± 1.17 | 9.01 ± 0.45 | 8.10 ± 0.01 |  |  |  |  |  |  |
| CC(C)O [Propan-2-ol] | 0.51 ± 1.09 |  | 8.393 +/− 0.012 | no affect on the hardness of the hydrogel |  |  |  |  |  |
| CC(O)CO (centres unmarked) [1,2-propandiol] | 2.08 ± 0.78 | 14.10 ± 0.5 | 8.39 ± 0.02 | no affect on the hardness of the hydrogel |  |  |  |  |  |
| OC[C@@H](O)[C@@H](O)[C@H](O)[C@@H](O)CO [D-sorbitol] | 6.87 ± 1.25 | 4.37 ± 0.31 | 7.79 ± 0.02 |  |  |  |  |  |  |
| CCN(CC)CC(=O)Nc1c(C)cccc1C [Lidocaine HCl, lidocaine hydrochloride] |  |  |  |  | ≧8.15 | ≧7.75 | ≧7.45 | ≧7.26 | > 7.26 |
| Malititol | 7.25 ± 1.59 | 2.79 ± 0.14 | 7.63 ± 0.019 |  |  |  |  |  |  |
